Reference: patent US20260125378A2, “Heterocyclic Compounds” (BeOne Medicines I GmbH, priority 2023, published 2026)

Legend:
[1] = target: T1, Full length DGKζ (in-house protein M1-V929) (Homo sapiens, UniProt Q13574); assay: Biochemical DGK IC50 assay (ADP-Glo, lipid micelle substrate), DGKζ; conditions: 1 hour preincubation, 1 hour reaction, room temperature
T1 construct: His (N); TEV site (N); made in house; host or cells: Sf9 insect cells (Bac-to-Bac baculovirus)
Description: (§1) Enzymatic reactions of DGKζ, DGKα and DGKδ were performed using ADP-Glo assay with lipid micelle substrate. […] Full length DGKα (D21-10BG, SignalChem) and full length DGKδ (D23-10G, SignalChem) were purchased. Lipid micelle was prepared by dissolving DAG (Sigma, 317505-10 MG) and PS (Sigma, P7769-100 MG) with chloroform which was furtherly removed by rotary evaporation. The obtained residue was resuspended in buffer containing 25 mM HEPES pH 7.0, 0.5 mM EDTA and 160 mM Octyl β-D glucopyranoside by vigorous mixing and ultrasonic (IID, Scientz).
(§2) The inhibition activities testing for the compound disclosed herein were carried out at room temperature in assay buffer containing 50 mM HEPES, 10 mM MgCl2, 0.01% BSA, 0.1 mM Na3VO4, 0.005% Tween-20 and 0.01 mM CaCl2). Compounds in DMSO were dispensed into wells of a black 384 well plate (Corning 4514) using D300e digital dispenser (Tecan). […] 3 μL 2× enzyme solution was added to wells. […] After 1 hour reaction, 5 μL ADP-Glo reagent (Promga V9101) was added and incubated for 40 minutes. 10 μL Kinase Detection reagent was added and incubated for 30 minutes. Luminescence was measured on a microplate reader (PHERAstar FSX, BMG labtech). The IC50S are calculated based on inhibition of enzyme activity in the presence of increasing concentrations of compounds.
Human His-TEV-DGK-zeta-pFastBac1 and human baculovirus samples was generated using the Bac- to -Bac baculovirus expression system (Invitrogen) according to the manufacturer's protocol. The DNA used for expression of DGK-zeta, have SEQ ID Nos: 1. Baculovirus amplification was achieved using infected SF9 cells at 1:2000 virus/cells ratios, and grown for 96 hours at 27° C. post-transfected.
The expression scaled up for each protein was carried out in the […] from CORNING. 4 L of 3×10^6 cells/mL Sf9 cells (Expression System, Invitrogen) grown in SF900™ II SFM insect medium (Expression System) was infected with virus stock at 1:200 virus/cells ratio, and grown for 48 hours at 27° C. post-transfection. The infected cell culture was harvested by centrifugation at 6000 rpm for 15 min 4° C. in a SORVALL LYNX6000 centrifuge. The cell pellets were stored at −80° C.
Full length human DGKζ produced as described above, was purified from Sf9 baculovirus-infected insect cell paste. The cells were lysed using sonication method, and the lysates were clarified by centrifugation.

[2] = target: T2, Full length DGKα (D21-10BG, SignalChem) (Homo sapiens, UniProt P23743); assay: Biochemical DGK IC50 assay (ADP-Glo, lipid micelle substrate), DGKα; conditions: 1 hour preincubation, 1 hour reaction, room temperature
T2 construct: Full length DGKα (D21-10BG, SignalChem); purchased SignalChem D21-10BG
T2 sequence (P23743 whole entry): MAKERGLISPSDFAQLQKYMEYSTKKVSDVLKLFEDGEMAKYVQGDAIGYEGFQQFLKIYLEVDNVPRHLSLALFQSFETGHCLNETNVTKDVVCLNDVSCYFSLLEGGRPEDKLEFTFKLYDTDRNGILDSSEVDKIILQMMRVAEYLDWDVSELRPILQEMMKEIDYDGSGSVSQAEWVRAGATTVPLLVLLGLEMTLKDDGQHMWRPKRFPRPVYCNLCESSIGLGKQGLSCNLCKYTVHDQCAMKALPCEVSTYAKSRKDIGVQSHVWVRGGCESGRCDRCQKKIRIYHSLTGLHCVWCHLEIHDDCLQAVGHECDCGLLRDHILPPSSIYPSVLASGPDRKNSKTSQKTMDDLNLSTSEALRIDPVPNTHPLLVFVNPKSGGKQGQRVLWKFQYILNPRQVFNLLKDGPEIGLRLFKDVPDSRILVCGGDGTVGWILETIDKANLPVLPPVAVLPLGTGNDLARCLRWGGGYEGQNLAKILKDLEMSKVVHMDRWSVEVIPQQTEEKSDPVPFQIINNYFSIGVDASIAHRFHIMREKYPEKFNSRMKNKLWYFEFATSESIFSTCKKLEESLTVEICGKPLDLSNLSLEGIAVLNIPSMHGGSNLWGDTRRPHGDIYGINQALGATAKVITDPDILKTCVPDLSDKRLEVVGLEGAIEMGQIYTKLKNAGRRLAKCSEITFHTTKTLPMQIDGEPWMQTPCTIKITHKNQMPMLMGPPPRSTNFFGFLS
Description: as §1, §2

T1 sequence (Q13574 1-929 isoform Q13574-4): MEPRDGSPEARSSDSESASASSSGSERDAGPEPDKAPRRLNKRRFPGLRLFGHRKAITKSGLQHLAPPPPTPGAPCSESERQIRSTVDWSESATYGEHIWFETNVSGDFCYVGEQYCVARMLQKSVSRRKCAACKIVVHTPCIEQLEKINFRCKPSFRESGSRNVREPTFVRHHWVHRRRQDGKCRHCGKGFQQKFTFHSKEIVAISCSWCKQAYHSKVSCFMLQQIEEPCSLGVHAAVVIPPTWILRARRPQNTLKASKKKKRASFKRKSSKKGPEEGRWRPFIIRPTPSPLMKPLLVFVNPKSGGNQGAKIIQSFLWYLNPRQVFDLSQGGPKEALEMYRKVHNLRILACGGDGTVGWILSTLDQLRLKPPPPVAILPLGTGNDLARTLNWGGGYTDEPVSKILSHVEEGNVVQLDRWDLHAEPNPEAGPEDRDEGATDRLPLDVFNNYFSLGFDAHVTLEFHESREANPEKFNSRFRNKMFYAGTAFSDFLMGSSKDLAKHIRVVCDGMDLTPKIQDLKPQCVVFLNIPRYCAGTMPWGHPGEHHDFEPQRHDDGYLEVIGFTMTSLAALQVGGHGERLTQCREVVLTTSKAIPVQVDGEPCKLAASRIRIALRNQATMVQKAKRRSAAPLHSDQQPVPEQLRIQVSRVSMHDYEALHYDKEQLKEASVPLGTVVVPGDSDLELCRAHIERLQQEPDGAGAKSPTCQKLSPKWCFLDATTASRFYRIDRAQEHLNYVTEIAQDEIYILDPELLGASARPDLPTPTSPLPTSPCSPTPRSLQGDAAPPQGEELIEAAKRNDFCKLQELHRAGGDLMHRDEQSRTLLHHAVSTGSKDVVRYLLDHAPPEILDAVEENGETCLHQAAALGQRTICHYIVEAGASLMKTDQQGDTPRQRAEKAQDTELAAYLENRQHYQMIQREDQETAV

Structure (SMILES)	IC50 [1]	IC50 [2]
CCn1c(=O)nc(N2C[C@@H](C)N(C(C)c3ccc4c(c3)OC(C)(C)CO4)C[C@@H]2C)c2nc(CC#N)n(C)c21 (single isomer, unassigned) [Compound A61a]	2 nM	10100 nM
CC[C@H]1CN(C(C)c2ccc(F)cc2C(F)(F)F)[C@H](CC)CN1c1nc(=O)n(C)c2c1nc(CC#N)n2C (single isomer, unassigned) [Compound A34a]	392 nM	> 10000 nM
CCn1c(CC#N)nc2c(N3C[C@@H](C)N(C(C)c4ccc5c(c4)OC(C)(C)CO5)C[C@@H]3C)nc(=O)n(CC)c21 (stereo partly drawn) [Compound A62, 2-(6-((2S,5R)-4-(1-(3,3-dimethyl-2,3-dihydrobenzo[b][1,4]dioxin-6-yl)ethyl)-2,5-dimethylpiperazin-1-yl)-3,9-diethyl-2-oxo-3,9-dihydro-2H-purin-8-yl)acetonitrile]	279 nM	> 150000 nM
CCn1c(CC#N)nc2c(N3C[C@@H](C)N(C(C)c4cc(Cl)c5c(c4)OC(C)(C)O5)C[C@@H]3C)nc(=O)n(C)c21 (stereo partly drawn) [Compound A171, 2-(6-((2S,5R)-4-(1-(7-chloro-2,2-dimethylbenzo[d][1,3]dioxol-5-yl)ethyl)-2,5-dimethylpiperazin-1-yl)-9-ethyl-3-methyl-2-oxo-3,9-dihydro-2H-purin-8-yl)acetonitrile]	107 nM	65800 nM
CC(c1ccc2c(c1)OC(C)(C)O2)N1C[C@H](C)N(c2nc(=O)n(C)c3c2nc(CC#N)n3C)C[C@H]1C (stereo partly drawn) [Compound A98, 2-(6-((2S,5R)-4-(1-(2,2-dimethylbenzo[d][1,3]dioxol-5-yl)ethyl)-2,5-dimethylpiperazin-1-yl)-3,9-dimethyl-2-oxo-3,9-dihydro-2H-purin-8-yl)acetonitrile]	5 nM	11600 nM
CCn1c(CC#N)nc2c(N3C[C@@H](C)N(C(C)c4cc(Cl)c5c(c4)OC(C)(C)CO5)C[C@@H]3C)nc(=O)n(C)c21 (stereo partly drawn) [Compound A72, 2-(6-((2S,5R)-4-(1-(8-chloro-3,3-dimethyl-2,3-dihydrobenzo[b][1,4]dioxin-6-yl)ethyl)-2,5-dimethylpiperazin-1-yl)-9-ethyl-3-methyl-2-oxo-3,9-dihydro-2H-purin-8-yl)acetonitrile]	64 nM	> 150000 nM
CCn1c(CC#N)nc2c(N3C[C@@H](C)N(C(C)c4cccc(C)c4)C[C@@H]3C)nc(=O)n(C)c21 (stereo partly drawn) [Compound A45, 2-(6-((2S,5R)-2,5-dimethyl-4-(1-(m-tolyl)ethyl)piperazin-1-yl)-9-ethyl-3-methyl-2-oxo-3,9-dihydro-2H-purin-8-yl)acetonitrile]	410 nM	79300 nM
CC(OC(F)F)c1cc(F)ccc1C(C)N1C[C@H](C)N(c2nc(=O)n(C)c3c2nc(CC#N)n3C)C[C@H]1C (single isomer, unassigned) [Compound A29b]	4 nM	136000 nM
CCn1c(CC#N)nc2c(N3C[C@@H](C)N(C(C)c4nc5c(cc4F)OCC(C)(C)O5)C[C@@H]3C)nc(=O)n(C)c21 (mixture of isomers) [Compound A161, 2-(9-ethyl-6-((2S,5R)-4-(1-(7-fluoro-3,3-dimethyl-2,3-dihydro-[1,4]dioxino[2,3-b]pyridin-6-yl)ethyl)-2,5-dimethylpiperazin-1-yl)-3-methyl-2-oxo-3,9-dihydro-2H-purin-8-yl)acetonitrile]	81 nM	> 150000 nM
CCn1c(CC#N)nc2c(N3C[C@@H](C)N(C(C)c4cccc(C5CC5)c4)C[C@@H]3C)nc(=O)n(C)c21 (stereo partly drawn) [Compound A125, 2-(6-((2S,5R)-4-(1-(3-cyclopropylphenyl)ethyl)-2,5-dimethylpiperazin-1-yl)-9-ethyl-3-methyl-2-oxo-3,9-dihydro-2H-purin-8-yl)acetonitrile]	42 nM	> 150000 nM
Cc1ccc(C(C)N2C[C@H](C)N(c3cc(=O)n(C)c4c3nc(CC#N)n4C)C[C@H]2C)c(C(F)(F)F)c1 (single isomer, unassigned) [Compound A8a]	1480 nM	> 10000 nM
CCn1c(CC#N)nc2c(N3C[C@@H](C)N(C(C)c4ccc5c(=O)cc(C)n(C)c5c4)C[C@@H]3C)nc(=O)n(C)c21 (stereo partly drawn) [Compound A155, 2-(6-((2S,5R)-4-(1-(1,2-dimethyl-4-oxo-1,4-dihydroquinolin-7-yl)ethyl)-2,5-dimethylpiperazin-1-yl)-9-ethyl-3-methyl-2-oxo-3,9-dihydro-2H-purin-8-yl)acetonitrile]	1210 nM	101000 nM
CC(c1ccc2c(c1)OC(F)(F)O2)N1C[C@H](C)N(c2nc(=O)n(C)c3c2nc(CC#N)n3C)C[C@H]1C (stereo partly drawn) [Compound A167, 2-(6-((2S,5R)-4-(1-(2,2-difluorobenzo[d][1,3]dioxol-5-yl)ethyl)-2,5-dimethylpiperazin-1-yl)-3,9-dimethvl-2-oxo-3,9-dihydro-2H-purin-8-yl)acetonitrile]	90 nM	19000 nM
CC[C@@H]1CN(c2nc(=O)n(C)c3c2nc(CC#N)n3C)[C@@H](C)CN1C(C)c1ccc2c(c1)OC(C)(C)CO2 (single isomer, unassigned) [Compound A63a]	2 nM	10300 nM
CCn1c(CC#N)nc2c(N3C[C@@H](C)N(C(C)c4cccc(C(F)(F)F)n4)C[C@@H]3C)nc(=O)n(C)c21 (single isomer, unassigned) [Compound A118a]	4820 nM	> 150000 nM
CCn1c(CC#N)nc2c(N3C[C@@H](C)N(C(C)c4ccnc(NC(C)C)c4)C[C@@H]3C)nc(=O)n(C)c21 (stereo partly drawn) [Compound A122, 2-(9-ethyl-6-((2S,5R)-4-(1-(2-(isopropylamino)pyridin-4-yl)ethyl)-2,5-dimethylpiperazin-1-yl)-3-methyl-2-oxo-3,9-dihydro-2H-purin-8-yl)acetonitrile]	834 nM	> 150000 nM
CCn1c(CC#N)nc2c(N3C[C@@H](C)N(C(C)c4nc5c(cc4Cl)OCC(C)(C)O5)C[C@@H]3C)nc(=O)n(C)c21 (stereo partly drawn) [Compound A160, 2-(6-((2S,5R)-4-(1-(7-chloro-3,3-dimethyl-2,3-dihydro-[1,4]dioxino[2,3-b]pyridin-6-yl)ethyl)-2,5-dimethylpiperazin-1-yl)-9-ethyl-3-methyl-2-oxo-3,9-dihydro-2H-purin-8-yl)acetonitrile]	331 nM	> 150000 nM
Cc1cnc2ccc(C(C)N3C[C@H](C)N(c4c(F)c(=O)n(C)c5c4nc(CC#N)n5C)C[C@H]3C)cc2n1 (single isomer, unassigned) [Compound A23a]	8 nM	63200 nM
CCn1c(CC#N)nc2c(N3C[C@@H](C)N(C(C)c4cc5c(cc4F)OC(C)(C)O5)C[C@@H]3C)nc(=O)n(C)c21 (single isomer, unassigned) [Compound A174a]	1030 nM	51200 nM
Cc1cnc2ccc(C(C)N3C[C@H](C)N(c4nc(=O)n(C)c5c4nc(CC#N)n5C)C[C@H]3C)cc2n1 (single isomer, unassigned) [Compound A49b]	400 nM	> 150000 nM
CCn1c(CC#N)nc2c(N3C[C@@H](C)N(C(C)c4ccnc(C(C)(C)C)c4)C[C@@H]3C)nc(=O)n(C)c21 (stereo partly drawn) [Compound A129, 2-(6-((2S,5R)-4-(1-(2-(tert-butyl)pyridin-4-yl)ethyl)-2,5-dimethylpiperazin-1-yl)-9-ethyl-3-methyl-2-oxo-3,9-dihydro-2H-purin-8-yl)acetonitrile]	4 nM	> 150000 nM
CCn1c(CC#N)nc2c(N3C[C@@H](C)N(C(C)c4cc(F)c5c(c4)OC(C)(C)O5)C[C@@H]3C)nc(=O)n(C)c21 (single isomer, unassigned) [Compound A173a]	12 nM	51000 nM
CCn1c(CC#N)nc2c(N3C[C@@H](C)N(C(C)c4cccc(OC(F)(F)F)c4)C[C@@H]3C)nc(=O)n(C)c21 (stereo partly drawn) [Compound A44, 2-(6-((2S,5R)-2,5-dimethyl-4-(1-(3-(trifluoromethoxy)phenyl)ethyl)piperazin-1-yl)-9-ethyl-3-methyl-2-oxo-3,9-dihydro-2H-purin-8-yl)acetonitrile]	34 nM	51200 nM
CC(OC(F)F)c1cc(F)ccc1C(C)N1C[C@H](C)N(c2nc(=O)n(C)c3c2nc(CC#N)n3C)C[C@H]1C (single isomer, unassigned) [Compound A29a]	437 nM	> 150000 nM
